# How the values were obtained:
# Spr1654 [1] = target: T1, Spr1654 (Streptococcus pneumoniae, UniProt A0A0H2URM1); assay: X-ray crystal structure, […] Å; format: binding; details: PMP formed by adding L-glutamate to the PLP complex before crystallization; active site
# T1 construct: gene SP_1837; full-length, C-terminal His6 tag (pET-23b), expressed in E. coli T7 Express; homodimer; residues Tyr4-Thr404 seen in crystals
# [2] = target: Spr1654 aminotransferase from Streptococcus pneumoniae, full length with C-terminal poly-histidine (Streptococcus pneumoniae) (UniProt Q8DNL6); assay: SEC; Superdex200 Increase 10/300 GL gel filtration, 20 mM Tris-HCl pH 7.5, 200 mM NaCl, 4°C; oligomeric state from the elution profile
# Spr1654 [3] = target: T1, Spr1654; assay: X-ray crystal structure, […] Å; absorption spectroscopy ([…] nm); format: binding; details: covalent; internal aldimine with Lys199; 1 mM PLP preincubated, pH 7.5
# Spr1654 [4] = target: T1, Spr1654; assay: transamination half-reaction, PLP ([…] nm) to PMP ([…] nm) absorbance; format: biochemical; details: 0.5 mM L-glutamate, Spr1654/PLP 0.9 mg/ml, 50 mM MES pH 6.6, 200 mM NaCl, 25 °C; amino donor
molecule,measurement,setting,value
Cc1ncc(COP(=O)(O)O)c(CN)c1O [PMP],"X-ray crystal structure, 2.4 Å",Spr1654 [1],"In the crystal structure of the Spr1654/PMP complex, the phosphate group serves as the main anchor"
"Spr1654 aminotransferase from Streptococcus pneumoniae, full length with C-terminal poly-histidine (from UniProt Q8DNL6 1-417) (enzyme)",stoichiometry N,[2],2
Cc1ncc(COP(=O)(O)O)c(C=O)c1O [PLP],"X-ray crystal structure, 2.2 Å; absorption spectroscopy (420 nm)",Spr1654 [3],Clear electron density confirms the formation of a covalent bond between PLP and residue Lys199
"N[C@@H](CCC(=O)O)C(=O)O [E, L-glutamate]","transamination half-reaction, PLP (420 nm) to PMP (330 nm) absorbance",Spr1654 [4],Spr1654 is able to deaminate L-glutamate in the first half-reaction of transamination with high efficiency

# — publication PMC5936713, “Structural and functional studies of Spr1654: an essential aminotransferase in teichoic acid biosynthesis in Streptococcus pneumoniae” (Open Biology, 2018)
